Patent US20170152263A1, “Substituted Indazole Compounds as IRAK4 Inhibitors” (AURIGENE DISCOVERY TECHNOLOGIES LIMITED, priority 2014, published 2017)
pIC50: −log10 of the molar value. Structures can show the parent of a compound that is named as a salt.

Target: T1, recombinant IRAK-4 kinase (Homo sapiens, UniProt Q9NWZ3)
T1 construct: purchased Millipore, USA
T1 sequence (Q9NWZ3 1-460): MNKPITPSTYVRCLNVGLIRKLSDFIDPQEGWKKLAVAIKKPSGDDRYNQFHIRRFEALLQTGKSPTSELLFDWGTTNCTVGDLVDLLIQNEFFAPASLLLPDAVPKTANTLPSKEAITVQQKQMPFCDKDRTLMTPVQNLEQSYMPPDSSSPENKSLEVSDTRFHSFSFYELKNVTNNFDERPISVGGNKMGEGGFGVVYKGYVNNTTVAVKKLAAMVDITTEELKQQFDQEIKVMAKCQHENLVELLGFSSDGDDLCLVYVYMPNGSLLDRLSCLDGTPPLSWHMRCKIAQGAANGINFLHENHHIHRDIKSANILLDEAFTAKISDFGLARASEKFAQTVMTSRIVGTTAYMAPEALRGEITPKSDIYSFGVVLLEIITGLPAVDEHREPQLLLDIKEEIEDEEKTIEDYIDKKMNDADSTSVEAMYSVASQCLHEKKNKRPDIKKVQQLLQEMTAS
Assay: IRAK-4 biochemical assay (TR-FRET)
Conditions: IRAK-4 enzyme, 20 μM ATP; for inhibition at 0.1 µM: compound at 0.1 μM; for inhibition at 1 µM: compound at 1 μM; for pIC50: dose response
Protocol: Compounds were tested for their potential to inhibit IRAK-4 enzyme in a TR-FRET assay using recombinant IRAK-4 kinase from Millipore, USA. The assay buffer was 50 mM Tris-HCl pH 7.5, 20 mM MgCl2, 1 mM EGTA, 2 mM DTT, 3 mM MnCl2 and 0.01% Tween 20.5 ng of IRAK-4 kinase was used for the assay. After pre-incubation of enzyme with test compound for 30 minutes at room temperature, a substrate mixture containing 100 nM Biotin Histone H3 (Millipore, USA) and 20 μM ATP (Sigma, USA) was added and the reaction was incubated for 30 min. Post incubation, the reaction was stopped by the addition of stop mix containing 40 mM EDTA, 1 nM of Europium-Anti-Phospho-Histone H3 (Ser10) antibody (Perkin Elmer, USA) and 20 nM SureLight Allophycocyanin-Streptavidin (Perkin Elmer, USA). The fluorescence emission at 615 nm and 665 nm were measured at an excitation of 340 nm and the percent inhibition was estimated from the ratio of the fluorescence intensities [(F665/F615)×10000]. […] The IC50 values were estimated by fitting the dose-response data to sigmoidal dose response (variable slope), curve fitting program using Graphpad Prism software Version 6.01.

Row | Compound | inhibition at 0.1 µM [%] | inhibition at 1 µM [%] | pIC50
1 | Cn1ncc2cc(N3CC[C@@H](O)C3)c(NC(=O)c3coc(-c4cccnc4N)n3)cc21 [Example 29, (R)-2-(2-aminopyridin-3-yl)—N—(5-(3-hydroxypyrrolidin-1-yl)-1-methyl-1H-indazol-6-yl)oxazole-4-carboxamide hydrochloride] | 14 | 95 | > 7.00
2 | Cc1cc(-c2nc(C)c(C(=O)Nc3cc4c(cnn4C)cc3N3CC[C@H](O)C3)o2)ccn1 [Example 36, hydrochloride] | 2 | 1 | –
3 | Cc1cc(-c2nc(C(=O)Nc3cc4nn(C)cc4cc3N3CCCCC3)co2)ccn1 [Example 2, N—(2-methyl-5-(piperidin-1-yl)-2H-indazol-6-yl)-2-(2-methylpyridin-4-yl)oxazole-4-carboxamide hydrochloride] | – | 98 | > 7.00
4 | Cc1cc(-c2nc(C(=O)Nc3cc4c(cnn4C)cc3N3CCC(F)CC3)co2)ccn1 [Example 19, N—(5-(4-fluoropiperidin-1-yl)-1-methyl-1H-indazol-6-yl)-2-(2-methylpyridin-4-yl)oxazole-4-carboxamide] | 94 | 97 | > 7.00
5 | Cc1cc(-c2nc(C(=O)Nc3cc4c(cnn4CC4CCNCC4)cc3N3CC[C@H](O)C3)co2)ccn1 [Example 44, (S)—N—(5-(3-hydroxypyrrolidin-1-yl)-1-(piperidin-4-ylmethyl)-1H-indazol-6-yl)-2-(2-methylpyridin-4-yl)oxazole-4-carboxamide hydrochloride] | 0 | 54 | –
6 | Cn1ncc2cc(N3CC[C@@H](O)C3)c(NC(=O)c3cccc(N4CC[C@H](O)C4)n3)cc21 [Example 24, 6-((S)-3-hydroxypyrrolidin-1-yl)—N—(5-((R)-3-hydroxypyrrolidin-1-yl)-1-methyl-1H-indazol-6-yl)picolinamide] | 33 | 80 | 6.60 to 7.00
7 | CC(=O)Nc1cc(-c2nc(C(=O)Nc3cc4c(cnn4C)cc3N3CC[C@H](O)C3)co2)ccn1 [Example 15] | 83 | 99 | > 7.00
8 | Cc1cc(-c2nc(C(=O)Nc3cc4c(cnn4C)cc3N3CCC(O)(CO)CC3)co2)ccn1 [Example 40, N-(5-(4-hydroxy-4-(hydroxymethyl)piperidin-1-yl)-1-methyl-1H-indazol-6-yl)-2-(2-methylpyridin-4-yl)oxazole-4-carboxamide] | 95 | 98 | > 7.00
9 | Cn1ncc2cc(N3CCCCC3)c(NC(=O)c3coc(N4CC[C@H](O)C4)n3)cc21 [Example 10, (S)-2-(3-hydroxypyrrolidin-1-yl)—N—(1-methyl-5-(piperidin-1-yl)-1H-indazol-6-yl)oxazole-4-carboxamide] | 95 | 91 | > 7.00
10 | Cn1ncc2cc(N3CC[C@H](O)C3)c(NC(=O)c3cnn4cccnc34)cc21 [Example 48, (S)—N—(5-(3-hydroxypyrrolidin-1-yl)-1-methyl-1H-indazol-6-yl)pyrazolo[1,5-a]pyrimidine-3-carboxamide hydrochloride] | 25 | 80 | < 6.60
11 | Cc1nccc(-c2nc(C(=O)Nc3cc4c(cnn4C)cc3N3CC[C@H](O)C3)co2)n1 [Example 35, (S)—N—(5-(3-hydroxypyrrolidin-1-yl)-1-methyl-1H-indazol-6-yl)-2-(2-methylpyrimidin-4-yl)oxazole-4-carboxamide hydrochloride] | 45 | 93 | 6.60 to 7.00

Second part, the molecule after the results:

Row | inhibition at 0.1 µM [%] | inhibition at 1 µM [%] | pIC50 | Compound
12 | 41 | 84 | 6.60 to 7.00 | Cc1cc(-c2nc(C(=O)Nc3cc4c(cnn4C)cc3N3CC[C@H](O)C3)co2)cc(C)n1 [Example 21, (S)-2-(2,6-dimethylpyridin-4-yl)—N—(5-(3-hydroxypyrrolidin-1-yl)-1-methyl-1H-indazol-6-yl)oxazole-4-carboxamide]
13 | 90 | 73 | < 6.60 | Cn1cc2cc(N3CCCCC3)c(NC(=O)c3cccc(N4CC[C@H](O)C4)n3)cc2n1 [Example 3, (S)-6-(3-hydroxypyrrolidin-1-yl)—N—(2-methyl-5-(piperidin-1-yl)-2H-indazol-6-yl)picolinamide]
14 | 94 | 96 | > 7.00 | Cn1ncc2cc(N3CC[C@H](O)C3)c(NC(=O)c3coc(-c4ccnc(N)c4)n3)cc21 [Example 18, (S)-2-(2-aminopyridin-4-yl)—N—(5-(3-hydroxypyrrolidin-1-yl)-1-methyl-1H-indazol-6-yl)oxazole-4-carboxamide]
15 | 62 | 95 | > 7.00 | CCn1ncc2cc(N3CC[C@H](O)C3)c(NC(=O)c3coc(-c4ccnc(C)c4)n3)cc21 [Example 32, (S)—N—(1-ethyl-5-(3-hydroxypyrrolidin-1-yl)-1H-indazol-6-yl)-2-(2-methylpyridin-4-yl)oxazole-4-carboxamide hydrochloride]
16 | 89 | 96 | > 7.00 | Cc1cc(-c2nc(C(=O)Nc3cc4c(cnn4C)cc3N3CC[C@@H](O)C3)co2)ccn1 [Example 22, (R)—N—(5-(3-hydroxypyrrolidin-1-yl)-1-methyl-1H-indazol-6-yl)-2-(2-methylpyridin-4-yl)oxazole-4-carboxamide]
17 | 94 | 99 | > 7.00 | Cc1cc(-c2nc(C(=O)Nc3cc4c(cnn4C)cc3N3CCCC(F)C3)co2)ccn1 (centres unmarked) [Example 16, N—(5-(3-fluoropiperidin-1-yl)-1-methyl-1H-indazol-6-yl)-2-(2-methylpyridin-4-yl)oxazole-4-carboxamide]
18 | 83 | 78 | < 6.60 | Cn1ncc2cc(N3CCCCC3)c(NC(=O)c3cccc(N4CC[C@H](O)C4)n3)cc21 [Example 9, (S)-6-(3-hydroxypyrrolidin-1-yl)—N—(1-methyl-5-(piperidin-1-yl)-1H-indazol-6-yl)picolinamide]
19 | 94 | 96 | > 7.00 | Cc1cc(-c2nc(C(=O)Nc3cc4nn(C)cc4cc3N3CCCC(F)C3)co2)ccn1 (centres unmarked) [Example 14, N—(5-(3-fluoropiperidin-1-yl)-2-methyl-2H-indazol-6-yl)-2-(2-methylpyridin-4-yl)oxazole-4-carboxamide]
20 | 0 | 37 | – | Cn1ncc2cc(N3CC[C@H](O)C3)c(NC(=O)c3coc(N4CCNCC4)n3)cc21 [Example 31, (S)—N—(5-(3-hydroxypyrrolidin-1-yl)-1-methyl-1H-indazol-6-yl)-2-(piperazin-1-yl)oxazole-4-carboxamide hydrochloride]
21 | 90 | 56 | < 6.60 | Cn1ncc2cc(N3CCCCC3)c(NC(=O)c3cccc(N4CC[C@H](N)C4)n3)cc21 [Example 8, (S)-6-(3-aminopyrrolidin-1-yl)—N—(1-methyl-5-(piperidin-1-yl)-1H-indazol-6-yl)picolinamide]
22 | 95 | 82 | < 6.60 | Cn1cc2cc(N3CCCCC3)c(NC(=O)c3coc(N4CC[C@H](N)C4)n3)cc2n1 [Example 5, (S)-2-(3-aminopyrrolidin-1-yl)—N—(2-methyl-5-(piperidin-1-yl)-2H-indazol-6-yl)oxazole-4-carboxamide]
23 | 34 | 89 | 6.60 to 7.00 | Cn1cc2cc(N3CCC(O)CC3)c(NC(=O)c3cnn4cccnc34)cc2n1 [Example 47, N—(5-(4-hydroxypiperidin-1-yl)-2-methyl-2H-indazol-6-yl)pyrazolo[1,5-a]pyrimidine-3-carboxamide hydrochloride]
24 | 88 | 97 | < 6.60 | Cc1cc(-c2nc(C(=O)Nc3cc4[nH]ncc4cc3N3CC[C@H](O)C3)co2)ccn1 [Example 27, (S)—N—(5-(3-hydroxypyrrolidin-1-yl)-1H-indazol-6-yl)-2-(2-methylpyridin-4-yl)oxazole-4-carboxamide]
